In brackets after ≈: the same amount, converted by molar mass. Activity calls are given as the source filed them. The calls are words filed in the database; no cut-off is given here.
Tests used:
[1] = system: Liver; assay: Unbound intrinsic clearance in mouse liver microsomes at 0.5 uM in presence of NADPH incubated for 5 to 30 mins by HPLC-MS/MS method; format: ADME, microsome
[2] = system: PC-3; assay: Antiproliferative activity against human PC3 cells assessed as reduction in cell viability incubated for 5 days by Cell-titer Glo reagent based assay; format: functional
[3] = system: Liver; assay: Unbound intrinsic clearance in human liver microsomes at 0.5 uM in presence of NADPH incubated for 5 to 30 mins by HPLC-MS/MS method; format: ADME, microsome
[4] = molecular target: Nicotinamide phosphoribosyltransferase (Homo sapiens, UniProt P43490)
Chain of Nicotinamide phosphoribosyltransferase (P43490 whole entry): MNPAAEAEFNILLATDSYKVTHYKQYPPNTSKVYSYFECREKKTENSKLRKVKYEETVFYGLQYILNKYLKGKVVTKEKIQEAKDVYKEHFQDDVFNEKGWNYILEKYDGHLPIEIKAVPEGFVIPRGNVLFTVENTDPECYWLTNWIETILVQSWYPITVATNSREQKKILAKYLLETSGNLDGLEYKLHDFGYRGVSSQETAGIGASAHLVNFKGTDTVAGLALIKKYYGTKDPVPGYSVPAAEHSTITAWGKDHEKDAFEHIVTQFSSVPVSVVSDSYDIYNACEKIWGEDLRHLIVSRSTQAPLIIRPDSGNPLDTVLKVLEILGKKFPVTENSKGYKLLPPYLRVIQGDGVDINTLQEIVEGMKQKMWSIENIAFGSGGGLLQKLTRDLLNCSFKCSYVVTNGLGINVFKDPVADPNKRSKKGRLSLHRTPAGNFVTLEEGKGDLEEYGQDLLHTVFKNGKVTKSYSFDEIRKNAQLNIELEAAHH
Description: Inhibition of C-terminal His-tagged human recombinant NAMPT using FK866 or isoindoline urea-based Oregon green (488) probe incubated for 3 hrs by TR-FRET assay

[5] = Aqueous solubility of the compound; format: physicochemical; settings: buffer
[6] = Oral bioavailability in Sprague-Dawley rat at 1 mg/kg; format: ADME, organism-based; settings: in vivo
[7] = system: Liver; assay: Unbound intrinsic clearance in rat liver microsomes at 0.5 uM in presence of NADPH incubated for 5 to 30 mins by HPLC-MS/MS method; format: ADME, microsome
[8] = system: HCT-116; assay: Antitumor activity against human HCT116 cells xenografted in CB17 SCID mouse assessed as tumor growth inhibition at 15 mg/kg/day, po dosed daily (3 days on/4 days off per cycle for 3 cycles); format: functional; settings: HCT-116, po, 72 h, read-out: TGI
[9] = molecular target: Cytochrome P450 3A4 (Homo sapiens, UniProt P08684); assay: Inhibition of CYP3A4 (unknown origin); format: ADME
Chain of Cytochrome P450 3A4 (P08684 whole entry): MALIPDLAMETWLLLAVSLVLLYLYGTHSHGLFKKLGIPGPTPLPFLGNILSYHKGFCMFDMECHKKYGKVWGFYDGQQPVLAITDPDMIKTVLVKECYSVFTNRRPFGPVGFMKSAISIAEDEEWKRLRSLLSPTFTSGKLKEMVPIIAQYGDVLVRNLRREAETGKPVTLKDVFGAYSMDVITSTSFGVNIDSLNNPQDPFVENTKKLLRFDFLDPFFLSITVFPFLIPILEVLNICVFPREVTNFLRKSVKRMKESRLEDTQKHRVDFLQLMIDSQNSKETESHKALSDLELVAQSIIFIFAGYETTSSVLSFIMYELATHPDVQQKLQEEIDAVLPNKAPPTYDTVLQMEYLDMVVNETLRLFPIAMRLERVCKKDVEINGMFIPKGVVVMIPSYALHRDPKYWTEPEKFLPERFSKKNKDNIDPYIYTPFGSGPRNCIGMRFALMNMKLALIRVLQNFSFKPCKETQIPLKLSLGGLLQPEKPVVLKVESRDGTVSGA

[10] = molecular target: Cytochrome P450 2C9 (Homo sapiens, UniProt P11712); assay: Inhibition of CYP2C9 (unknown origin); format: ADME
Chain of Cytochrome P450 2C9 (P11712 whole entry): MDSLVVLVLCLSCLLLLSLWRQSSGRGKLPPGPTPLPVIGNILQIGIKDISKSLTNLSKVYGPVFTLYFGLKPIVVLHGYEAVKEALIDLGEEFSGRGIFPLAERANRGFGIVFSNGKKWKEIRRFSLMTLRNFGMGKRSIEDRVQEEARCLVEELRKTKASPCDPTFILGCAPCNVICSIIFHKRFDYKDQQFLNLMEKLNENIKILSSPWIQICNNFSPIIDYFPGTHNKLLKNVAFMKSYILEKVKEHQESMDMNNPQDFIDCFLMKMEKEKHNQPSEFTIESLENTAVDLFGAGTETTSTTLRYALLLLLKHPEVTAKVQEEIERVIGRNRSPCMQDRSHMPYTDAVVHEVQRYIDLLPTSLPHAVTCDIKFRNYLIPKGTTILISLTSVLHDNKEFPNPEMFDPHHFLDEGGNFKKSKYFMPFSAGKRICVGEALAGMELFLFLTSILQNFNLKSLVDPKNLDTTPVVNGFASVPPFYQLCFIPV

[11] = Plasma clearance in Sprague-Dawley rat at 1 mg/kg, iv; format: ADME, organism-based
[12] = Half life in Sprague-Dawley rat at 1 mg/kg, iv; format: ADME, organism-based; settings: in vivo
[13] = system: Rattus norvegicus; assay: Unbound intrinsic clearance in Sprague-Dawley rat at 1 mg/kg, iv; format: ADME, organism-based; settings: in vivo
[14] = system: U-87 MG; settings: Homo sapiens; U-87MG ATCC
Description: Antitumor activity against human U87MG cells xenografted in CB17 SCID mouse assessed as tumor growth inhibition

[15] = system: NCI-H345; settings: Homo sapiens
Description: Antitumor activity against human NCI-H345 cells xenografted in CB17 SCID mouse assessed as tumor growth inhibition

[16] = Half life in Sprague-Dawley rat at 5 mg/kg, iv; format: ADME, organism-based; settings: in vivo
[17] = system: H460LM; settings: Homo sapiens
Description: Antitumor activity against human H460LM cells xenografted in CB17 SCID mouse assessed as tumor growth inhibition

[18] = Oral bioavailability in Sprague-Dawley rat at 5 mg/kg; format: ADME, organism-based; settings: in vivo
[19] = system: A2780; settings: Homo sapiens
Description: Antitumor activity against human A2780 cells xenografted in CB17 SCID mouse assessed as tumor growth inhibition

[20] = system: Rattus norvegicus; assay: Unbound intrinsic clearance in Sprague-Dawley rat at 5 mg/kg, iv; format: ADME, organism-based; settings: in vivo
[21] = system: ES2; settings: Homo sapiens
Description: Antitumor activity against human ES2 cells xenografted in CB17 SCID mouse assessed as tumor growth inhibition

[22] = Plasma clearance in Sprague-Dawley rat at 5 mg/kg, iv; format: ADME, organism-based

SMILES	CL free [1]	IC50 ([2]; Homo sapiens, PC-3, 120 h)	CL free [3]	Ki [4]	IC50 ([2]; pc-3)	solubility [5]	also measured
CC(C)C(=O)N1CCC(c2ccc(NC(=O)N3Cc4ccccc4C3)cc2)CC1	367 mL/min/kg	18 nM	58.3 mL/min/kg	–	–	–	–
COC(=O)c1ccc(NC(=O)N2Cc3ccccc3C2)cc1	–	–	–	112 nM	2300 nM	< 5 µM	–
CN1CCC(C(=O)N2CCC(c3ccc(NC(=O)N4Cc5ccc(F)cc5C4)cc3)CC2)CC1	267 mL/min/kg	5.6 nM	41.7 mL/min/kg	9.4 nM	–	–	–
CCC(C)C(=O)N1CCC(Oc2ccc(NC(=O)N3Cc4ccccc4C3)cc2)CC1 (stereo not given)	2780 mL/min/kg	48 nM	633 mL/min/kg	–	–	–	–
CN1CCN(C(C)(C)C(=O)N2CCC(c3ccc(NC(=O)N4Cc5ccccc5C4)cc3)CC2)CC1	1470 mL/min/kg	2.3 nM	733 mL/min/kg	1.5 nM	–	–	–
Cc1ccc2c(c1)CN(C(=O)Nc1ccc(C(=O)NCCC(C)C)cc1)C2	–	10 nM	–	–	–	–	–
O=C(NCCCCC1CCN(C(=O)c2ccccc2)CC1)N1Cc2ccccc2C1	4670 mL/min/kg	8.4 nM	317 mL/min/kg	–	–	–	–
CC(C)CCNC(=O)c1ccc(NC(=O)N2Cc3ccc(C(F)(F)F)cc3C2)cc1	–	–	–	–	> 10000 nM	–	–
O=C(Nc1ccc(C(=O)N2CCN(c3ccccn3)CC2)cc1)N1Cc2ccccc2C1	183 mL/min/kg	19 nM	63.3 mL/min/kg	–	–	< 5 µM	–
CC(C)CCNS(=O)(=O)c1ccc(NC(=O)N2Cc3ccccc3C2)cc1	4420 mL/min/kg	> 10000 nM	433 mL/min/kg	–	–	< 5 µM	–
CN(CCC(C)(C)C)C(=O)c1ccc(NC(=O)N2Cc3ccccc3C2)cc1	2170 mL/min/kg	1100 nM	2000 mL/min/kg	160 nM	–	< 5 µM	–
CC(C)C[C@@H](CO)NC(=O)c1ccc(NC(=O)N2Cc3ccccc3C2)cc1	115 mL/min/kg	66 nM	56.7 mL/min/kg	–	–	< 5 µM	–
O=C(Nc1ccc(S(=O)(=O)c2ccccc2)cc1)N1Cc2ccccc2C1	367 mL/min/kg	30 nM	73.3 mL/min/kg	21 nM	–	–	–
COc1ccc2c(c1)CN(C(=O)Nc1ccc(C(=O)NCCC(C)C)cc1)C2	–	–	–	–	> 10000 nM	–	–
CC(C)CCC(=O)Nc1ccc(NC(=O)N2Cc3ccccc3C2)cc1	783 mL/min/kg	17 nM	60 mL/min/kg	58 nM	–	< 5 µM	–
O=C(NCCCc1ccccc1)c1ccc(NC(=O)N2Cc3ccccc3C2)cc1	–	21 nM	17670 mL/min/kg	–	–	< 5 µM	–
O=C(Nc1ccc(N2CCN(C(=O)c3ccccc3)CC2)cc1)N1Cc2ccccc2C1	–	84 nM	130 mL/min/kg	–	–	–	–
CC(C)CCNC(=O)c1ccc(NC(=O)N2Cc3ccccc3C2)cc1	817 mL/min/kg	–	250 mL/min/kg	–	38 nM	< 5 µM	–
CC(C)CCNC(=O)c1ccc(NC(=O)N2Cc3ccc(F)cc3C2)cc1	–	–	–	–	6.5 nM	–	–
CC(C)(O)CC(=O)N1CCC(c2ccc(NC(=O)N3Cc4ccccc4C3)cc2)CC1	300 mL/min/kg	24 nM	58.3 mL/min/kg	5.6 nM	–	3.3 µM (≈ 1.39 µg/mL)	bioavailability [6]: 100%; CL free [7]: < 56.7 mL/min/kg; inhibition in vivo at 15 mg/kg/day [8]: 90%; IC50 [9]: 16000 nM; IC50 [10]: 8400 nM; clearance [11]: 1.83 mL/min/kg; half-life [12]: 4.8 h; CL free [13]: 28.3 mL/min/kg
N#CN=C(NCCCCCCOc1ccc(Cl)cc1)Nc1ccncc1 [CHS-828]	1360 mL/min/kg	4.4 nM	567 mL/min/kg	–	–	< 5 µM	–
CC(C)CCNC(=O)c1cccc(NC(=O)N2Cc3ccccc3C2)c1	–	> 12500 nM	–	> 8900 nM	–	–	–
O=C(/C=C/c1cccnc1)NCCCCC1CCN(C(=O)c2ccccc2)CC1 [DAPORINAD]	258 mL/min/kg	5.7 nM	91.7 mL/min/kg	–	–	< 5 µM	–
O=C(Nc1ccc(C2CCN(S(=O)(=O)C3CC3)CC2)cc1)N1Cc2ccc(F)cc2C1	500 mL/min/kg	6.5 nM	58.3 mL/min/kg	3.9 nM	–	–	–

SMILES	CL free [1]	IC50 ([2]; Homo sapiens, PC-3, 120 h)	CL free [3]	Ki [4]	IC50 ([2]; pc-3)	solubility [5]	also measured
CC(C)CCNC(=O)c1ccc(NC(=O)N2Cc3ccc(CO)cc3C2)cc1	–	1.4 nM	–	–	–	–	–
O=C(NCc1ccc(S(=O)(=O)c2ccccc2)cc1)N1Cc2ccccc2C1	3670 mL/min/kg	> 10000 nM	650 mL/min/kg	–	–	–	–
O=C(Nc1ccc(C2CCN(C(=O)c3ccccc3)CC2)cc1)N1Cc2ccccc2C1	983 mL/min/kg	2.8 nM	183 mL/min/kg	–	–	–	–
O=C(NCC1CCOC1)c1ccc(NC(=O)N2Cc3ccccc3C2)cc1 (stereo not given)	83 mL/min/kg	–	26.7 mL/min/kg	–	68 nM	< 5 µM	–
CC(C)(C)CCNC(=O)c1ccc(NC(=O)N2Cc3ccccc3C2)cc1	145 mL/min/kg	–	217 mL/min/kg	–	21 nM	< 5 µM	–
CC(C)(O)CC(=O)N1CCC(c2ccc(NC(=O)N3Cc4ccc(F)cc4C3)cc2)CC1	143 mL/min/kg	3.2 nM	95 mL/min/kg	2.5 nM	–	–	–
O=C(NC[C@@H]1CCOC1)c1ccc(NC(=O)N2Cc3ccccc3C2)cc1	–	–	–	–	56 nM	17 µM (≈ 6.21 µg/mL)	TGI [14]: Active; TGI [15]: Active; half-life [16]: 3 h; TGI [17]: Active; CL free [7]: < 46.7 mL/min/kg; bioavailability [18]: 59%; TGI [19]: Active; inhibition in vivo at 15 mg/kg/day [8]: 78%; CL free [20]: 28.3 mL/min/kg; IC50 [9]: > 20000 nM; IC50 [10]: > 20000 nM; TGI [21]: Active; clearance [22]: 4.33 mL/min/kg
NC(=O)c1ccc(NC(=O)N2Cc3ccccc3C2)cc1	148 mL/min/kg	–	20 mL/min/kg	–	8000 nM	< 5 µM	–
CC(C)CCn1cc(-c2ccc(NC(=O)N3Cc4ccccc4C3)cc2)cn1	–	32 nM	–	–	–	< 5 µM	–
O=C(Nc1ccc(C2CCN(C(=O)[C@@H]3CCCO3)CC2)cc1)N1Cc2ccc(Cl)cc2C1	583 mL/min/kg	7.9 nM	217 mL/min/kg	1.7 nM	–	–	–
O=C(Nc1ccc(C2CN(C(=O)c3ccccc3)C2)cc1)N1Cc2ccc(F)cc2C1	433 mL/min/kg	3.9 nM	45 mL/min/kg	1.9 nM	–	–	–
COc1cc2c(cc1OC)CN(C(=O)Nc1ccc(C(=O)NCCC(C)C)cc1)C2	–	> 10000 nM	–	> 9000 nM	–	–	–
O=C(Nc1ccc(C2=CCN(C(=O)c3ccccc3)CC2)cc1)N1Cc2ccccc2C1	–	8.1 nM	217 mL/min/kg	–	–	–	–
CCCNC(=O)c1ccc(NC(=O)N2Cc3ccccc3C2)cc1	71.7 mL/min/kg	–	56.7 mL/min/kg	–	880 nM	< 5 µM	–
O=C(NCc1ccccc1)c1ccc(NC(=O)N2Cc3ccccc3C2)cc1	350 mL/min/kg	68 nM	58.3 mL/min/kg	–	–	< 5 µM	–
O=C(NCC1CCCOC1)c1ccc(NC(=O)N2Cc3ccccc3C2)cc1 (stereo not given)	75 mL/min/kg	17 nM	30 mL/min/kg	–	–	< 5 µM	–
CC(C)CCNC(=O)c1ccc(NC(=O)N2Cc3ccccc3C2)nc1	283 mL/min/kg	–	53.3 mL/min/kg	–	14 nM	–	–
CC1(C(=O)N2CCC(c3ccc(NC(=O)N4Cc5ccccc5C4)cc3)CC2)COC1	145 mL/min/kg	15 nM	50 mL/min/kg	5.1 nM	–	–	–
CC(C)CCNC(=O)c1ccc(NC(=O)N2Cc3ccc(C#N)cc3C2)cc1	–	> 10000 nM	–	–	–	–	–
CC(C)CCNC(=O)c1ccc(NC(=O)N2Cc3ccccc3C2)cn1	1250 mL/min/kg	–	217 mL/min/kg	–	730 nM	–	–
Cc1ccc(NC(=O)N2Cc3ccccc3C2)cc1	–	–	–	2200 nM	> 10000 nM	< 5 µM	–
CC(C)CCNC(=O)c1ccc(NC(=O)N2Cc3cccc(Cl)c3C2)cc1	–	–	–	–	640 nM	–	–
CC1(C(=O)N2CCC(c3ccc(NC(=O)N4Cc5ccccc5C4)cc3)CC2)CC1	283 mL/min/kg	6.6 nM	56.7 mL/min/kg	4.3 nM	–	–	–
CC(C)CCNC(=O)c1ccc(NC(=O)N2Cc3ccncc3C2)cc1	–	–	–	–	8.4 nM	–	–
